Measured values taken from the METLIN SMRT retention time set (Domingo-Almenara et al. 2019).

assay: gradient 5% acetonitrile 3 min, to 50% in 2 min, to 85% in 15 min, held 3 min, 100 µL/min; settings: column: Zorbax Extend-C18 2.1 x 50 mm; eluents: water / acetonitrile, 0.1% formic acid
Procedure, shortened: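 Values are retention times taken from adduct peaks that software picked and an analyst inspected. The pure standards were run as mixtures of ~100 molecules on HPLC linked to a quadrupole time-of-flight mass spectrometer, in positive and negative ionization mode. A Zorbax Extend-C18 column (2.1 × 50 mm, 1.8 μm) was used at 100 μL/min with water and acetonitrile, each including 0.1% formic acid.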

Going from O=C(C1CC(=O)N(c2n[nH]c3ccccc23)C1)N1CCC(c2nc3ccccc3[nH]2)CC1 (stereo not given) to Cc1cccc2c(=O)n(C3CCN(C(=O)Nc4ccc(F)cc4)CC3)cnc12, the RP-LC retention time rises from 591 s to 765 s.

Going from COc1cccc(-c2n[nH]c3c2C(c2ccc(O)cc2)N(C)C3=O)c1 (stereo not given) to COc1cccc(-c2nc(-c3ccc4c(c3)nc(C)c(=O)n4C)no2)c1, the RP-LC retention time rises from 693 s to 843 s.

Going from O=S(=O)(Cc1c(F)cccc1Cl)N1CCC(CN2CCCCCC2)CC1 to O=C(Cc1ccc(S(=O)(=O)N2CCN(c3ccccn3)CC2)s1)N1CCCC1, the RP-LC retention time falls from 695 s to 615 s.

Compared with COc1cccc(NC(=O)N2CC(c3nc(C)no3)C3(CCOCC3)C2)c1 (stereo not given), Cc1noc([C@@H]2CC(F)(F)CN2C(=O)c2ccoc2C)n1 is higher in RP-LC retention time: 703 s for the first, 756 s for the second.

Compared with CCC1CCCCN1C(=O)c1cnc2nc(C)ccc2c1Nc1ccc(C)cc1C (stereo not given), Cc1ccc2c(Nc3ccc(CC(=O)O)cc3)c(C(=O)N3CCCC3)cnc2n1 is lower in RP-LC retention time: 706 s for the first, 572 s for the second.

First: CS(=O)(=O)N1CC(F)(F)C[C@H]1c1nc(-c2ccncc2)no1
Second: CC(C)CNS(=O)(=O)c1ccc(-c2nnc(C3CC3)o2)o1
The RP-LC retention time of the first is lower: 693 s for the first, 809 s for the second.

Going from CCC(CO)NC(=O)C(=O)Nc1ccccc1SC (stereo not given) to CCCn1cc(CCNC(=O)Nc2ccc(Br)c(C)c2)c2cccnc21, the RP-LC retention time rises from 710 s to 902 s.

First: O=C1CC(c2noc(Cc3ccc(F)cc3)n2)CN1c1ccc(F)c(Cl)c1 (stereo not given)
Second: Cc1ccc(C2Cn3nnc(-c4nc(-c5cccc(Cl)c5)no4)c3CO2)c(C)c1 (stereo not given)
The RP-LC retention time of the first is lower: 1040 s for the first, 1400 s for the second.

Going from CSc1ccc(NC(=O)N2CCN(c3cnn4c(C)nnc4c3)CC2)cc1 to CCCc1cc(N2CCN(C(=O)c3ccc(N(C)C)cc3)CC2)nc2nncn12, the RP-LC retention time rises from 576 s to 612 s.

First: COc1ccc(NC(=O)Cn2ccnc2-c2ccnc(N3CCCC3)c2)cc1OC
Second: COc1ccc(C(=O)NCC(c2cccn2C)N2CCCC2)c(OC)c1OC (stereo not given)
The RP-LC retention time of the first is higher: 573 s for the first, 566 s for the second.

Going from CCn1ccc2c(cc(C(=O)Nc3cccc(OC)c3)n2C)c1=O to CCn1nnc2cc(-c3noc(CNC(=O)c4ccccc4)n3)ccc21, the RP-LC retention time rises from 748 s to 772 s.

First: COc1ccc(-c2nc3cc(C)ccn3c2Nc2ccc3c(c2)OCO3)cc1
Second: CC(=O)Nc1ccc(NC(=O)CCNc2c(-c3ccc(F)cc3)nc3cnccn23)cc1
The RP-LC retention time of the first is higher: 646 s for the first, 630 s for the second.

Compared with Fc1ccc(-c2nc(-c3ccc(-n4ccnc4)nc3)no2)cc1, Cc1nn(-c2nc(-c3ccc(F)cc3)cs2)c(C)c1CC(=O)Nc1ccc(Cl)cc1 is higher in RP-LC retention time: 732 s for the first, 1190 s for the second.

First: COCCCNC(=O)c1cc(-c2ccc(C)cc2)nc2n[nH]c(-c3ccc(C)cc3)c12
Second: Cc1noc(-c2ccc(OC3CN(C(=O)NCc4ccccc4)C3)cc2)n1
The RP-LC retention time of the first is higher: 881 s for the first, 836 s for the second.

Going from CNC(=O)Nc1ccc2nc3n(c(=O)c2c1)CCCC3 to O=C(Cn1cnc2nc(N3CCC(C(=O)NC4CC4)CC3)sc2c1=O)Nc1cccc(F)c1, the RP-LC retention time rises from 559 s to 655 s.

Going from Cc1ccc(-c2cc3n(n2)CCCN(C(=O)CCN2C(=O)NC(C)(C)C2=O)C3)cc1C to Cc1c(C(=O)N2CCCC(C)C2)sc2ncn(CC(=O)N3CC(C)CC(C)C3)c(=O)c12 (stereo not given), the RP-LC retention time rises from 730 s to 966 s.

Going from CCCCNC(=O)C1CCN(Cc2cc3ccccc3n2Cc2ccccc2Cl)CC1 to CCN(C(=O)c1ccccc1Cl)c1nc(-c2ccccc2)cs1, the RP-LC retention time rises from 788 s to 1310 s.

Going from Cc1cc(C(=O)N2CCC3(CC2)NCc2ccccc2-n2ccnc23)nn1C to Cc1nnc(C2CC3(CCN(CCO)CC3)CN2CCc2ccccc2)o1 (stereo not given), the RP-LC retention time falls from 576 s to 574 s.

Going from Cc1ccc(-c2nnc(-c3nn(C)c4c3CN(S(=O)(=O)c3ccccc3Cl)CC4)o2)cc1 to Cc1cc(N2CCCC2)nc(N2CCN(S(=O)(=O)c3ccc4c(c3)Cc3ccccc3-4)CC2)n1, the RP-LC retention time falls from 1020 s to 924 s.

Going from O=C(NC1CCN(c2cc(-c3cccs3)[nH]n2)C1)c1ccc(F)cc1F (stereo not given) to O=C(Cn1cnc2nc(N3CCCC(C(=O)NC4CC4)C3)sc2c1=O)Nc1ccc(Cl)cc1 (stereo not given), the RP-LC retention time rises from 718 s to 721 s.

Compared with COc1ccccc1CNC(=O)C1(c2ccc(NS(C)(=O)=O)cc2)CCCCC1, COc1cccc(CCC(=O)N2CCN(C3=NC=CN4CC(C)N=C34)CC2)c1 (stereo not given) is lower in RP-LC retention time: 893 s for the first, 591 s for the second.

First: Cc1sc(NC(=O)C(C)C)nc1-c1ccc2c(c1)N(C)C(=O)CO2
Second: CCc1nnc(-c2cc(C)n(CC(=O)Nc3ccc(Cl)cc3C)c2C)o1
The RP-LC retention time of the first is lower: 831 s for the first, 915 s for the second.

Cc1nc(N2CCN(c3ccccn3)CC2)nc2c1C(=O)CC(/C=C/c1ccccc1)C2 (stereo not given) showed an RP-LC retention time of 856 s.
